Source: patent US20110269811A1, “INHIBITORS OF SEMICARBAZIDE-SENSITIVE AMINE OXIDASE (SSAO) AND VAP-1 MEDIATED ADHESION USEFUL FOR TREATMENT AND PREVENTION OF DISEASES” (priority 2006, published 2011)
Where a name gives a salt, the structure may show the parent alone.

Biological target: T1, human MAO-B (Homo sapiens, UniProt P27338)
T1 construct: purchased BD Biosciences (MA, USA)
T1 sequence (P27338 1-520): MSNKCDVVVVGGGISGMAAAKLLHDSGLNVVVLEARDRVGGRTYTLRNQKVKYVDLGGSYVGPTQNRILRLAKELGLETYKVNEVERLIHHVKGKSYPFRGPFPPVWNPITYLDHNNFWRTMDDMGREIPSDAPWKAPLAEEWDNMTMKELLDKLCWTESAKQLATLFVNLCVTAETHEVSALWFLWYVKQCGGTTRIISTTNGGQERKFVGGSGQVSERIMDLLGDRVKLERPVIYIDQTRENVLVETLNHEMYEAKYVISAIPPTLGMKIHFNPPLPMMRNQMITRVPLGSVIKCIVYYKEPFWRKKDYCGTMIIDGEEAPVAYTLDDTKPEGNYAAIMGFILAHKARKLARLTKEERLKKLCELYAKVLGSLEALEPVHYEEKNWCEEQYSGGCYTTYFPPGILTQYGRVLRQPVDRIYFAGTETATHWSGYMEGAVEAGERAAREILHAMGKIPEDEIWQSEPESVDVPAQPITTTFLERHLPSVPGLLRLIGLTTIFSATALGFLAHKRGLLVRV
Test: MAO-B activity, colorimetric method, benzylamine substrate
Assay type: biochemical
Conditions: for Specificity of SSAO on MAO-B: ratio of IC50 for MAO-B to IC50 for SSAO; for IC50: recombinant human MAO-B
Description: The specificities of the different SSAO inhibitors was tested by determining their abilities to inhibit MAO-A and MAO-B activities in vitro. Recombinant human MAO-A and human MAO-B enzymes were obtained from BD Biosciences (MA, USA). MAO activity was measured using the colorimetric method essentially as described (Holt, A. et al. (1997) Anal. Biochem. 244: 384). A pre-determined amount of inhibitor diluted in 0.2M potassium phosphate buffer, pH 7.6, was added to each well, if required. […] Controls lacked inhibitor. The following agents were then added to a final reaction volume of 200 μL in 0.2M potassium phosphate buffer, pH 7.6: 0.04 mg/ml of MAO-A or 0.07 mg/ml MAO-B enzyme, 15 μL of 10 mM tyramine substrate (for MAO-A), or 15 μL 100 mM benzylamine substrate (for MAO-B), and 50 μL of freshly made chromogenic solution. The chromogenic solution contained 750 μM vanillic acid (Sigma#V-2250), 400 μM 4-aminoantipyrine (Sigma #A-4328) and 12 U/mL horseradish peroxidase (Sigma #P-8250) in order to cause a change of 0.5 OD A490 nm/h. […] The plates were incubated for 60 min at 37° C. The increase in absorbance, reflecting MAO activity, was measured at 490 nm using microplate spectrophotometer (Power Wave 40, Bio-Tek Inst.). Inhibition was presented as percent inhibition compared to control after correcting for background absorbance and IC50 values calculated using GraphPad Prism software. Clorgyline and pargyline (inhibitors of MAO-A and -B, respectively) at 1 μM, were added to some wells as positive controls for MAO inhibition.

Compound | Specificity of SSAO on MAO-B | IC50
CSc1ccc(C/C(=C/F)CN)cc1.Cl [Compound I-9-Z, (Z)-3-Fluoro-2-(4-methylthiobenzyl)allylamine hydrochloride] | 200 | 2.4 µM
Cc1cccc(C/C=C(/F)CN)c1.Cl [II-6-E, (E)-2-Fluoro-4-(3-methylphenyl)-2-butenylamine hydrochloride] | 7692 | –
CCOc1ccc(C/C(=C\F)CN)cc1.Cl [Compound I-2-E, (E)-3-Fluoro-2-(4-ethoxybenzyl)-allylamine hydrochloride] | 189 | 1.7 µM
NC/C(=C\F)CCc1ccc(F)cc1 [Compound I-99-Z, (Z)-2-(fluoromethylene)-4-(4-fluorophenyl)butan-1-amine] | 2.1 | 0.27 µM
Cl.NC/C(F)=C\Cc1cccc(OC(F)(F)F)c1 [II-10-E, (E)-2-Fluoro-4-(3-trifluoromethoxyphenyl)-2-butenylamine hydrochloride] | 53670 | 966 µM
CC(C)c1ccc(C/C(=C/F)CN)cc1.Cl [Compound I-14-Z, (Z)-3-Fluoro-2-(4-isopropylbenzyl)allylamine hydrochloride] | 1250 | 9.6 µM
Cl.NC/C(=C\F)Cc1cccc(F)c1 [Compound I-19-Z, (Z)-3-Fluoro-2-(3-fluorobenzyl)allylamine hydrochloride] | 27.6 | 0.69 µM
Cl.NC/C(=C\F)Cc1ccc(Cl)cc1 [Compound I-3-Z, (Z)-2-(4-Chlorobenzyl)-3-fluoro-allylamine hydrochloride] | 3 | 0.084 µM
Cl.NC/C(F)=C\Cc1ccc(F)cc1 [II-5-E, (E)-2-Fluoro-4-(4-fluorophenyl)-2-butenylamine hydrochloride] | >3333 | > 1000 µM
COc1cccc(C/C(C)=C(/F)CN)c1 [II-18-E, hydrochloride] | >3448 | > 1000 µM
Cl.NC/C(F)=C\Cc1cccc(SC(F)(F)F)c1 [II-15-E, (E)-2-Fluoro-4-(3-trifluoromethylthiophenyl)-2-butenylamine hydrochloride] | >34780 | > 800 µM
CC(C)Oc1ccc(C/C(=C/F)CN)cc1.Cl [Compound I-8-Z, (Z)-3-Fluoro-2-(4-isopropoxybenzyl)allylamine hydrochloride] | 5400 | 27 µM
COc1cccc(C/C=C(/F)CN)c1.Cl [II-8-E, (E)-2-Fluoro-4-(3-methoxyphenyl)-2-butenylamine hydrochloride] | 50000 | 1100 µM
COc1cccc(C/C(=C/F)CN)c1.Cl [Compound I-5-Z, (Z)-3-Fluoro-2-(3-methoxybenzyl)allylamine hydrochloride] | 64.3 | 1.8 µM
CC(C)(C)c1ccc(C/C(=C/F)CN)cc1.Cl [Compound I-15-Z, (Z)-3-Fluoro-2-(4-tert-butylbenzyl)allylamine hydrochloride] | 5429 | 38 µM
NC/C(=C\F)CCc1cc(F)cc(C(F)(F)F)c1.O=C(O)C(F)(F)F [Compound I-109-Z, (Z)-3-Fluoro-2-(3-fluoro-5-trifluoromethylphenylethyl)allylamine trifluoroacetate] | 5.9 | 1.6 µM
CCOc1ccc(CC/C(=C\Cl)CN)cc1.Cl [Compound I-45-Z, (E)-3-Chloro-2-(4-ethoxyphenylethyl)allylamine hydrochloride] | 8.6 | 1.2 µM
NC/C(=C\Cl)CCc1cc(F)cc(C(F)(F)F)c1.O=C(O)C(F)(F)F [Compound I-40-Z, (Z)-3-Chloro-2-(3-fluoro-5-trifluoromethylphenylethyl)allylamine trifluoroacetate] | 185 | 170 µM
Cl.NC/C(F)=C\Cc1ccccc1 [II-9-E, (E)-2-Fluoro-4-phenyl-2-butenylamine hydrochloride] | 12120 | 1200 µM
COc1ccc(CC/C(=C/F)CN)cc1.Cl [Compound I-102-Z, (Z)-3-Fluoro-2-[2-(4-methoxyphenyl)-ethyl]-allylamine hydrochloride] | 19 | 0.56 µM
CN(C)c1cccc(C/C=C(/F)CN)c1.Cl [II-11-E, (E)-2-Fluoro-4-(3-dimethylaminophenyl)-2-butenylamine hydrochloride] | 7272 | –
Cl.NC/C(F)=C\Cc1cccc(F)c1 [II-7-E, (E)-2-Fluoro-4-(3-fluorophenyl)-2-butenylamine hydrochloride] | 4545 | –
CS(=O)(=O)c1cccc(C/C=C(/F)CN)c1.Cl [II-14-E, (E)-2-Fluoro-4-(3-methanesulfonylphenyl)-2-butenylamine hydrochloride] | 14286 | –
CC(C)Oc1ccc(C/C(=C\F)CN)cc1 [Compound I-8-E, (E)-3-Fluoro-2-(4-isopropoxybenzyl)allylamine hydrochloride] | 3070 | 35 µM
COc1ccc(CC/C(=C\Cl)CN)cc1.Cl [Compound I-44-Z, (E)-3-Chloro-2-(4-methoxyphenylethyl)allylamine hydrochloride] | 22 | 16 µM
CSc1cccc(C/C=C(/F)CN)c1.Cl [II-13-E, (E)-2-Fluoro-4-(3-methylthiophenyl)-2-butenylamine hydrochloride] | 100000 | –
CCCCOc1ccc(CC/C(=C\Cl)CN)cc1.Cl [Compound I-47-E, (E)-3-Chloro-2-(4-n-butoxyphenylethyl)allylamine hydrochloride] | 2.5 | 0.42 µM
COc1cccc(OC/C=C(/F)CN)c1 [II-19-E, (E)-2-fluoro-4-(3-methoxyphenoxy)but-2-en-1-amine] | 5312 | 850 µM
CC(C)c1ccc(C/C(=C\F)CN)cc1.Cl [Compound I-14-E, (E)-3-Fluoro-2-(4-isopropylbenzyl)allylamine hydrochloride] | 2.54 | 0.033 µM
